Legend:
Type in all cases: cell-based, Human
S100A7 = experiment: AMP gene expression in keratinocytes (real time qPCR), S100A7; conditions: NHEK cells, 12HSA at 1 μM (=0.00003 wt %), 24 h
Source text: (§1) The following protocol was used for evaluating actives (12-HSA) on keratinocytes for AMP gene expression Normal Human Epidermal Keratinocyte cells (NHEK), EpiLife Keratinocyte Growth Medium (KGM) (with antibiotics Pen-Strep), Dulbecco's Phosphate Buffered Salone (DPBS), Trypsin-EDTA, Trypsin Neutralizer Solution, Ethanol, RNA extraction kit (RNeasy kit), RLT buffer, RT-PCR kit. • 1. Thaw the NHEK cells and expand them in KGM in 2-25 cc and then 75 cc flasks to 80% confluency, changing media every alternate day and incubating at 37° C. in a 5% CO2 incubator. • 2. Discard spent media and rinse the adhered cells in the flask with DPBS. Add Trypsin-EDTA and tap to dislodge the adhered cells. Add Trypsin Neutralizer and gently mix it. • 3. Transfer the contents to a 15-ml tube and spin down the cells. Discard supernatant and resuspend cells in KGM. Count and seed 30,000-50,000 cells per well in 24 well TC plates, incubate to 80-85% confluence (˜2-3 days). Change media every alternate day. Add differentiation media (KGM with 2 mM CaCl2) and incubate for 2-3 days. • 4. Prepare actives in KGM at the required concentration (final concentration of ethanol solvent, if used, should be less than 0.1%). • 5. […] Perform RNA extraction as per the kit, quantify the RNA, do cDNA synthesis and do real time qPCR for cDNA samples. […]

LL-37 = experiment: AMP gene expression in keratinocytes (real time qPCR), LL-37; conditions: NHEK cells, 12HSA at 1 μM (=0.00003 wt %), 24 h
Source text: as §1

RNase7 = experiment: AMP gene expression in keratinocytes (real time qPCR), RNase7; conditions: NHEK cells, 12HSA at 1 μM (=0.00003 wt %), 24 h
Source text: as §1

Psoriasin (S100A7) = experiment: AMP secretion from keratinocytes (Psoriasin ELISA); conditions: NHEK cells, 72 h, ELISA of supernatant
Source text: Psoriasin (S100A7) AMP from the above list was chosen to study the effect of concentration of 12-HSA on the secretion of the AMP. The procedure used was as follows: Normal Human Epidermal Keratinocyte cells (NHEK), EpiLife Keratinocyte Growth Medium (KGM) (with antibiotics Pen-Strep), Dulbecco's Phosphate Buffered Salone (DPBS), Trypsin-EDTA, Trypsin Neutralizer Solution, Ethanol, Psoriasin ELISA Kit. • 1. Thaw the NHEK cells and expand them in KGM in 2 -25 cc and then 75 cc flasks to 80% confluency, changing media every alternate day and incubating at 37° C. in a 5% CO2 incubator. • 2. Discard spent media and rinse the adhered cells in the flask with DPBS. Add Trypsin-EDTA and tap to dislodge the adhered cells. Add Trypsin Neutralizer and gently mix it. • 3. Transfer the contents to a 15-ml tube and spin down the cells. Discard supernatant and resuspend cells in KGM. Count and seed 30,000-50,000 cells per well in 24 well TC plates, incubate to 80-85% confluence (˜2-3 days). Change media every alternate day. Add differentiation media (KGM with 2 mM CaCl2) and incubate for 2-3 days. • 4. Prepare actives in KGM at the required concentration (final concentration of ethanol solvent, if used, should be less than 0.1%). • 5. Replace the differentiation media with the actives containing media and incubate for 72 h • 6. Collect supernatant and store at −80° C. Thaw them completely before performing ELISA to measure AMP (Psoriasin). • 7. For ELISA, run the required standards and samples (undiluted and diluted) and using standard plot, the amount of AMP in samples calculated.

HBD-3 = experiment: AMP gene expression in keratinocytes (real time qPCR), HBD-3; conditions: NHEK cells, 12HSA at 1 μM (=0.00003 wt %), 24 h
Source text: as §1

CCCCCCC(O)CCCCCCCCCCC(=O)O (centres unmarked) [12-HSA, 12-hydroxystearic acid]
Fold change with respect to control, AMP gene S100A7 (S100A7): 1.66 fold | Fold change with respect to control, AMP gene LL-37 (LL-37): 2.09 fold | Fold change with respect to control, AMP gene RNase7 (RNase7): 2.56 fold | Fold change with respect to control (Psoriasin increase) (Psoriasin (S100A7); 0.25 μM 12-HSA): 8.12 fold | Fold change with respect to control (Psoriasin increase) (Psoriasin (S100A7); 0.50 μM 12-HSA): 15.07 fold | Fold change with respect to control (Psoriasin increase) (Psoriasin (S100A7); 1.0 μM 12-HSA): 9.79 fold | Fold change with respect to control (Psoriasin increase) (Psoriasin (S100A7); 2.0 μM 12-HSA): 15.70 fold | Fold change with respect to control, AMP gene HBD-3 (HBD-3): 2.16 fold

Reference: patent publication US20240000738A1, “HYDROXYSTEARIC ACID FOR INDUCING GENERATION OF ANTIMICROBIAL PEPTIDES” (Conopco, Inc., d/b/a UNILEVER, priority 2020, published 2024)
